Measurements from patent US9284423B2, “Crosslinkable composition crosslinkable by real michael addition (RMA) reaction” (NUPLEX RESINS B.V., priority 2011, dated 2016).

What was measured:
[1] = Determination of Michael addition reactivity (Example 12): loss of X-H component in butyl acrylate/methanol at room temperature, by back-titration (GC for dimethylmalonate); format: physicochemical; details: for Relative conversion rates (relative Michael addition reactivity: initial increase in % conversion, per minute): with strong base, same method as for succinimide; for Succinimide remaining (%): strong base (tetrabutylammonium hydroxide) added, % relative to theoretical level
Experimental: Subsequently, the concentration of succinimide is determined as a function of time by taking samples, neutralizing with a known excess of HCl in water, and backtitration with a KOH solution. […] Succinimide concentration is expressed as % relative to the theoretical level based on used amounts.

[2] = pKa defined in aqueous environment; cited from earlier work
[3] = butyl acrylate/methanol, room temperature

Question: With `c1nc[nH]n1` [1,2,4-triazole] as the compound, how does the “Relative conversion rates (relative Michael addition reactivity: initial increase in % conversion, per minute)” value [1, 3] read?
Answer: Its value is 0.91 % conversion, per minute.

Question: With `CC1(C)NC(=O)NC1=O` [5,5-dimethylhydantoin] as the compound, how does the “Relative conversion rates (relative Michael addition reactivity: initial increase in % conversion, per minute)” value [1, 3] read?
Answer: The value was 0.03 % conversion, per minute.

Question: What about the pKa [2] of the same compound?
Answer: Its pKa is 10.2.

Question: Which “Relative conversion rates (relative Michael addition reactivity: initial increase in % conversion, per minute)” value [1, 3] does the source give for `c1ccc2[nH]nnc2c1` [benzotriazole] here?
Answer: The value was 0.29 % conversion, per minute.

Question: What about the pKa [2] of the same compound?
Answer: The pKa was 8.2.

Question: For `CCOC(=O)CC(=O)OCC` [diethylmalonate], which pKa [2] is on record?
Answer: Its pKa is 13.0.

Question: With `O=C1Nc2ccccc2C1=O` [isatine] as the compound, how does the pKa [2] read?
Answer: The pKa was 10.3.

Question: For `C[N+](=O)[O-]` [nitromethane], which pKa [2] is on record?
Answer: The pKa was 10.2.

Question: Which results are given for `O=C1CCC(=O)N1` [succinimide]?
Answer: Succinimide acidic protons consumed ([1]; in about an hour, [succinimide]/[base]=5): 25%; Succinimide remaining (%) ([1]; time 3 min, [succinimide]/[base]=5, butyl acrylate/methanol, room temperature): 99%; Succinimide remaining (%) ([1]; time 30 min, [succinimide]/[base]=5, butyl acrylate/methanol, room temperature): 87%; Succinimide remaining (%) ([1]; time 60 min, [succinimide]/[base]=5, butyl acrylate/methanol, room temperature): 77%; Succinimide remaining (%) ([1]; time 120 min, [succinimide]/[base]=5, butyl acrylate/methanol, room temperature): 60%; Succinimide remaining (%) ([1]; time 180 min, [succinimide]/[base]=5, butyl acrylate/methanol, room temperature): 48%; Relative conversion rates (relative Michael addition reactivity: initial increase in % conversion, per minute) [1, 3]: 0.33 % conversion, per minute; Loss of succinimide N-H without base initiation ([1]; without base, butyl acrylate/methanol, room temperature, two weeks): no significant loss

Question: With `O=c1cc[nH]c(=O)[nH]1` [uracil] as the compound, how does the pKa [2] read?
Answer: The pKa was 9.9.
